Assay results from PubChem BioAssay AID330 (DTP/NCI, 2004).
“And” between values parts separate entries of the source, which are not always exact repeats. Equal values may be shown once. Inconclusive results and toxic doses are left out. The calls were made as follows: active = survival T/C of 150% or more; inactive = T/C below 125% in these data.

Tested on: P388 leukemia ip, CD2F1 mice, survival T/C
Test: NCI In Vivo Anticancer Drug Screen. Data for tumor model P388 Leukemia (intraperitoneal) in CD2F1 (CDF1) mice
Conditions: endpoint: median survival time, higher = longer survival
Method in brief: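 Mice carrying the transplanted tumor received test compound or vehicle. Survival was recorded in each group, and the value is the treated-group measurement divided by that of the vehicle-treated control group.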

[1] = dose: 100.0 mg/kg/injection, schedule: Q01DX001 (ip), vehicle: saline
[2] = dose: 200.0 mg/kg/injection, schedule: Q01DX001 (ip), vehicle: saline
[3] = dose: 50.0 mg/kg/injection, schedule: Q01DX005 (ip), vehicle: saline with Tween-80
[4] = dose: 100.0 mg/kg/injection, schedule: Q01DX005 (ip), vehicle: saline with Tween-80
[5] = dose: 200.0 mg/kg/injection, schedule: Q01DX005 (ip), vehicle: saline with Tween-80
[6] = dose: 6.25 mg/kg/injection, schedule: Q01DX009 (ip), vehicle: saline with Tween-80
[7] = dose: 12.5 mg/kg/injection, schedule: Q01DX009 (ip), vehicle: saline with Tween-80
[8] = dose: 25.0 mg/kg/injection, schedule: Q01DX009 (ip), vehicle: saline with Tween-80
[9] = dose: 50.0 mg/kg/injection, schedule: Q01DX005 (ip), vehicle: Klucel (hydroxypropylcellulose) (HPC)
[10] = dose: 100.0 mg/kg/injection, schedule: Q01DX005 (ip), vehicle: Klucel (hydroxypropylcellulose) (HPC)
[11] = dose: 200.0 mg/kg/injection, schedule: Q01DX005 (ip), vehicle: Klucel (hydroxypropylcellulose) (HPC)
[12] = dose: 50.0 mg/kg/injection, schedule: Q01DX009 (ip), vehicle: saline with Tween-80
[13] = dose: 200.0 mg/kg/injection, schedule: Q04DX003 (ip), vehicle: saline with Tween-80
[14] = dose: 100.0 mg/kg/injection, schedule: Q01DX009 (ip), vehicle: saline with Tween-80
[15] = dose: 200.0 mg/kg/injection, schedule: Q01DX009 (ip), vehicle: saline with Tween-80
[16] = dose: 50.0 mg/kg/injection, schedule: Q01DX009 (ip), vehicle: Klucel (hydroxypropylcellulose) (HPC)
[17] = dose: 100.0 mg/kg/injection, schedule: Q01DX009 (ip), vehicle: Klucel (hydroxypropylcellulose) (HPC)
[18] = dose: 25.0 mg/kg/injection, schedule: Q04DX003 (ip), vehicle: saline with Tween-80
[19] = dose: 50.0 mg/kg/injection, schedule: Q04DX003 (ip), vehicle: saline with Tween-80
[20] = dose: 60.0 mg/kg/injection, schedule: Q01DX005 (ip), vehicle: saline with Tween-80
[21] = dose: 120.0 mg/kg/injection, schedule: Q01DX005 (ip), vehicle: saline with Tween-80
[22] = dose: 240.0 mg/kg/injection, schedule: Q01DX005 (ip), vehicle: saline with Tween-80

Measured: T/C

CC(C1N(c2ccc(C(=O)NC(CCC(=O)O)C(=O)O)cc2)CC2CNc3nc(N)[nH]c(=O)c3N21)C1N(c2ccc(C(=O)NC(CCC(=O)O)C(=O)O)cc2)CC2CNc3nc(N)[nH]c(=O)c3N21 (stereo unspecified)
inactive: dose: 50.0 mg/kg/injection, schedule: Q01DX001 (ip), vehicle: saline 94 % of control | [1] 108 % of control | [2] 116 % of control

C1CCCc2c(-c3noc4c3CCCCCC4)noc2CC1
inactive: dose: 60.0 mg/kg/injection, schedule: Q01DX005 (ip), vehicle: saline 98 % of control | dose: 120.0 mg/kg/injection, schedule: Q01DX005 (ip), vehicle: saline 99 % of control | dose: 240.0 mg/kg/injection, schedule: Q01DX005 (ip), vehicle: saline 108 % of control

S=c1[nH]ncn2nc3ccccc3c12
inactive: [3] 100 % of control | [4] 97 % of control | [5] 97 % of control

C1CC1C(=NN=C(C1CC1)C1CC1)C1CC1
inactive: [6] 102 % of control | [7] 101 % of control | [8] 96 % of control

COc1cc2c(cc1OC)C(c1ccc([N+](=O)[O-])c(C)c1)=NCC2
inactive: [9] 100 % of control | [10] 100 % of control | [11] 96 % of control

O=C1c2ccccc2C(=O)C(Cl)C1Cl (stereo unspecified)
inactive: dose: 1.56 mg/kg/injection, schedule: Q01DX009 (ip), vehicle: saline with Tween-80 100 % of control | dose: 3.13 mg/kg/injection, schedule: Q01DX009 (ip), vehicle: saline with Tween-80 101 % of control

c1ccc(C2=C(c3ccccc3)c3ccccc3CO2)cc1
inactive: [1] 105 % of control | [2] 100 % of control | dose: 400.0 mg/kg/injection, schedule: Q01DX001 (ip), vehicle: saline 100 % of control

[O-][N+](=C1c2ccccc2-c2ccccc21)c1ccccc1
inactive: dose: 50.0 mg/kg/injection, schedule: Q04DX003 (ip), vehicle: saline 109 % of control | dose: 100.0 mg/kg/injection, schedule: Q04DX003 (ip), vehicle: saline 118 % of control | dose: 200.0 mg/kg/injection, schedule: Q04DX003 (ip), vehicle: saline 95 % of control

CSc1nc(C)c(Br)c(Sc2nc(N)nc3nc[nH]c23)n1
inactive: [7] 104 % of control | [12] 113 % of control and 122 % of control | [13] 95 % of control

Cc1nc(N)c(C#N)c(-c2ccccc2)c1-c1ccccc1
inactive: dose: 100.0 mg/kg/injection, schedule: Q01DX001 (ip), vehicle: saline with Tween-80 92 % of control | dose: 200.0 mg/kg/injection, schedule: Q01DX001 (ip), vehicle: saline with Tween-80 90 % of control | dose: 400.0 mg/kg/injection, schedule: Q01DX001 (ip), vehicle: saline with Tween-80 106 % of control

CN(/C=C/C=C/C=N/O)c1ccccc1
inactive: dose: 50.0 mg/kg/injection, schedule: Q01DX001 (ip), vehicle: Klucel (hydroxypropylcellulose) (HPC) 104 % of control | dose: 100.0 mg/kg/injection, schedule: Q01DX001 (ip), vehicle: Klucel (hydroxypropylcellulose) (HPC) 100 % of control | dose: 200.0 mg/kg/injection, schedule: Q01DX001 (ip), vehicle: Klucel (hydroxypropylcellulose) (HPC) 99 % of control

CC1(C)CC(COC(=O)c2c3ccccc3c3ccc4cccc5ccc2c3c54)CC(C)(C)N1O
inactive: [12] 98 % of control | [14] 106 % of control | [15] 91 % of control

O=C1C=CC(=O)C2=C1C1C3=C(C(=O)C=CC3=O)C2c2ccccc21
inactive: [12] 110 % of control | [14] 106 % of control | [15] 101 % of control

COc1cc2oc3c(c(=O)c2c(O)c1/C=C/C(C)C)C(C=C(C)C)Oc1cc(O)ccc1-3 (stereo unspecified)
inactive: [16] 124 % of control | [17] 115 % of control | dose: 200.0 mg/kg/injection, schedule: Q01DX009 (ip), vehicle: Klucel (hydroxypropylcellulose) (HPC) 114 % of control

O=S1(=O)C(c2cccc(C(F)(F)F)c2)=C(O)c2cc3ccccc3nc21
inactive: dose: 6.25 mg/kg/injection, schedule: Q01DX009 (ip), vehicle: saline + Tween-80 + alcohol 105 % of control | dose: 12.5 mg/kg/injection, schedule: Q01DX009 (ip), vehicle: saline + Tween-80 + alcohol 105 % of control | dose: 25.0 mg/kg/injection, schedule: Q01DX009 (ip), vehicle: saline + Tween-80 + alcohol 100 % of control and 87 % of control | dose: 50.0 mg/kg/injection, schedule: Q01DX009 (ip), vehicle: saline + Tween-80 + alcohol 99 % of control | dose: 100.0 mg/kg/injection, schedule: Q01DX009 (ip), vehicle: saline + Tween-80 + alcohol 99 % of control

Cc1nc2c(nc1C)C(=O)c1cc(O)ccc1C2=O
inactive: [9] 101 % of control | [10] 104 % of control | [11] 100 % of control

O=C(O)c1cc(-c2cccc3ccccc23)nc2ccccc12
inactive: [3] 94 % of control | [4] 94 % of control | [5] 94 % of control

CCCCCCC1NC(CCCCCC)N2C(CCCCCC)N12 (stereo unspecified)
inactive: dose: 100.0 mg/kg/injection, schedule: Q04DX003 (ip), vehicle: Klucel (hydroxypropylcellulose) (HPC) 101 % of control | dose: 200.0 mg/kg/injection, schedule: Q04DX003 (ip), vehicle: Klucel (hydroxypropylcellulose) (HPC) 97 % of control | dose: 400.0 mg/kg/injection, schedule: Q04DX003 (ip), vehicle: Klucel (hydroxypropylcellulose) (HPC) 93 % of control

C(=C\CN1CCOCC1)/Cc1cccnc1
inactive: dose: 3.12 mg/kg/injection, schedule: Q01DX009 (ip), vehicle: saline with Tween-80 99 % of control and 100 % of control | [6] 100 % of control | [7] 100 % of control and 104 % of control | [8] 100 % of control (2×) and 102 % of control | [12] 103 % of control and 109 % of control

Cc1nc2nc(N)nc(N)c2nc1Sc1ccc(Cl)cc1
inactive: [18] 94 % of control | [19] 90 % of control

Cc1ccc(NC(=O)CCC(=O)C(C)C(=O)c2ccccc2)c(C)c1 (stereo unspecified)
inactive: [3] 99 % of control | [4] 97 % of control | [5] 97 % of control

CCOC(=O)CC(C)=NCCN=C(C)CC(=O)OCC
inactive: [12] 104 % of control | [14] 106 % of control | [15] 111 % of control

CN=C(C)c1ccc(N(C)C)cc1
inactive: dose: 12.5 mg/kg/injection, schedule: Q04DX003 (ip), vehicle: saline with Tween-80 100 % of control | [18] 100 % of control and 105 % of control | [19] 110 % of control and 97 % of control | dose: 100.0 mg/kg/injection, schedule: Q04DX003 (ip), vehicle: saline with Tween-80 105 % of control and 115 % of control | [13] 100 % of control and 120 % of control

O=C(NCCc1ccc(Cl)cc1)c1ccc(Cl)cc1
inactive: [20] 96 % of control | [21] 97 % of control | [22] 91 % of control

COc1ccc(C2OC3=C(Nc4ccccc4N3)C2=O)cc1 (stereo unspecified)
inactive: dose: 60.0 mg/kg/injection, schedule: Q01DX005 (ip), vehicle: Klucel (hydroxypropylcellulose) (HPC) 97 % of control | dose: 120.0 mg/kg/injection, schedule: Q01DX005 (ip), vehicle: Klucel (hydroxypropylcellulose) (HPC) 97 % of control | dose: 240.0 mg/kg/injection, schedule: Q01DX005 (ip), vehicle: Klucel (hydroxypropylcellulose) (HPC) 98 % of control

Cc1nc(Nc2ccc(F)cc2)c2c(-c3ccccc3)c[nH]c2n1
inactive: [9] 90 % of control | [10] 88 % of control

Cc1c([N+](=O)[O-])cc(Br)c2ccccc12
inactive: dose: 25.0 mg/kg/injection, schedule: Q01DX009 (ip), vehicle: water 108 % of control | dose: 50.0 mg/kg/injection, schedule: Q01DX009 (ip), vehicle: water 94 % of control | dose: 100.0 mg/kg/injection, schedule: Q01DX009 (ip), vehicle: water 93 % of control

CSC1=NC=C(C#N)C2=NC(c3ccc(Cl)cc3)NN12 (stereo unspecified)
inactive: [20] 90 % of control | [21] 93 % of control | [22] 94 % of control

Nc1nc2ncc(CCNc3ccc(C(=O)NC(CCC(=O)O)C(=O)O)cc3)nc2c(=O)[nH]1 (stereo unspecified)
inactive: dose: 12.5 mg/kg/injection, schedule: Q01DX009 (ip), vehicle: Klucel (hydroxypropylcellulose) (HPC) 98 % of control | dose: 25.0 mg/kg/injection, schedule: Q01DX009 (ip), vehicle: Klucel (hydroxypropylcellulose) (HPC) 103 % of control | [16] 107 % of control | [17] 93 % of control
